Reference: patent US20230044268A1, “AN IMPROVED PROCESS FOR PREPARATION OF LIRAGLUTIDE” (SHILPA MEDICARE LIMITED, priority 2019, published 2023)

Test: storage stability of liraglutide obtained by the present process
Format: physicochemical
Conditions: storage of the isolated product; conditions not given
Text: The present invention also relates to a process for the preparation of liraglutide, which is substantially pure having a purity of greater or equal to 99.5% and meeting the ICH guidelines. Further, the liraglutide obtained as per the present process is found devoid of any other process related impurities and is adequately stable to handle and store for longer time (at least up to more than 6 months) without any significant or measurable change in its morphology and physicochemical characteristics.

Liraglutide
stable to handle and store without any significant or measurable change in morphology and physicochemical characteristics: more than 6 months
